Measurements published in US12152038B2, “Vasopressin receptor antagonists and products and methods related thereto” (Neumora Therapeutics, Inc., priority 2017, dated 2024).
Like-named read-outs stand apart in the source and are kept apart here.

Experiments:
[1] = target: T1, MDR1 (P-glycoprotein) (Homo sapiens, UniProt P08183); assay: MDR1-MDCK permeability and efflux assay (Papp, efflux ratio, effective efflux ratio); assay type: in vitro ADME; conditions: for Papp AB MDR1 / Papp A→B at 1 h, 10 μM: A->B; for EER (Effective Efflux Ratio): ER(MDR1-MDCK)/ER(wild-type MDCK); for ER MDR1 (Efflux Ratio): Papp B>A/Papp A>B; for efflux ratio at 1 h, 10 μM / Papp A→B at 1 h, 10 μM: dog; for Papp A→B at 1 h, 10 μM: pH 7.4, read-out: Papp AB MDR1
T1 construct: host or cells: MDCK (MDR1-MDCK; wild-type MDCK as comparator)
T1 sequence (P08183 whole entry): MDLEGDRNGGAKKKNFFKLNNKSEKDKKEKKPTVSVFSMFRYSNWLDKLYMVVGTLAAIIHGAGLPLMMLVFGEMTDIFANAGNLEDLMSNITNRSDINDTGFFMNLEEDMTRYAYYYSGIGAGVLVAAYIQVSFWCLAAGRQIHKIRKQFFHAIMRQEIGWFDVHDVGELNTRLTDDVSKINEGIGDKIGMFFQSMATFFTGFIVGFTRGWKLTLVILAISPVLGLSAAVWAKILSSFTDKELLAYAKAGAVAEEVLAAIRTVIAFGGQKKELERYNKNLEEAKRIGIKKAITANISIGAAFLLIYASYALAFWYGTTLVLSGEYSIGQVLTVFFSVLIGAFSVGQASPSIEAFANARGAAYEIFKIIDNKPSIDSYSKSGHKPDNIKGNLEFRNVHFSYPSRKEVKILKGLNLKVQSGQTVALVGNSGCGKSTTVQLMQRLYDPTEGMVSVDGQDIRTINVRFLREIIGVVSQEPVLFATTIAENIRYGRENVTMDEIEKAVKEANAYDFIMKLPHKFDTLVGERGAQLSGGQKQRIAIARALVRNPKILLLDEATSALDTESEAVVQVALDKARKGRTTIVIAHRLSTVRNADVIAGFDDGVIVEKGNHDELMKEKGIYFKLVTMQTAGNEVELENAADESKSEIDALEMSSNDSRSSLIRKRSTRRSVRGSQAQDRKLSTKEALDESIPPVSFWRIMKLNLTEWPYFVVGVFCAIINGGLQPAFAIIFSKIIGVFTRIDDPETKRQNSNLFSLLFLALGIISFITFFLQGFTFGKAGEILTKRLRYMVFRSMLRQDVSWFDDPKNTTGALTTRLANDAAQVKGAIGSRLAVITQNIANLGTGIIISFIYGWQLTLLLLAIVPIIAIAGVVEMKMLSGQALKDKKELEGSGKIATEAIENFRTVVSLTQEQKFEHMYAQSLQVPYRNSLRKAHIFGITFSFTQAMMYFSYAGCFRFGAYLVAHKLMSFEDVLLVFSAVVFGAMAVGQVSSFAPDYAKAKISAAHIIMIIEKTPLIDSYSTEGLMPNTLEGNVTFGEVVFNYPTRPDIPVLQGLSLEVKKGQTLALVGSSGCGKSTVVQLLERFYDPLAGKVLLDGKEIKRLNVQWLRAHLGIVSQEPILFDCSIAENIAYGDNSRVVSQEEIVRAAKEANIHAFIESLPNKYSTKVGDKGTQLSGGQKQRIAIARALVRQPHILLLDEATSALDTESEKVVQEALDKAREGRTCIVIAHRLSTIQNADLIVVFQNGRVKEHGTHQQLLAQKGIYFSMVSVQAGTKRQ
Method: (§1) The MDR1-MDCK effective efflux assay was performed as described in the BioFocus Standard Operating Procedure, ADME-SOP-56. Both wild-type (WT) and MDR1-MDCK cells (Solvo Biotechnology) were seeded onto 24-well Transwell plates at 2.35×10^5 cells per well and used in confluent monolayers after a 3 day culture at 37° C. under 5% CO2. For both cell types, test and control compounds (propranolol, vinblastine) were added (10 μM, 0.1% DMSO final, n=2) to donor compartments of the Transwell plate assembly in assay buffer (Hanks balanced salt solution supplemented with 25 mM HEPES, adjusted to pH 7.4) for both apical to basolateral (A>B) and basolateral to apical (B>A) measurements. Incubations were performed at 37° C., with samples removed from both donor and acceptor chambers at T=0 and 1 hour and compound analysed by mass spectrometry (LC-MS/MS) including an analytical internal standard.
(§2) Apparent permeability (Papp) values were determined from the relationship: Papp=[CompoundAcceptor T=end]×V Acceptor/([Compound Donor T=0]×V Donor)/incubation time×V Donor/Area×60×10^−6 cm/s
(§3) In this equation, V is the volume of each Transwell compartment (apical 125 μL, basolateral 600 μL), and concentrations are the relative MS responses for compound (normalized to internal standard) in the donor chamber before incubation and acceptor chamber at the end of the incubation, and Area is the area of cells exposed for drug transfer (0.33 cm^2).
(§4) Efflux ratios (Papp B>A/Papp A>B) were calculated for each compound from the mean Papp values in each direction for both wild-type and MDR1-MDCK cells.
(§5) In order to confirm the involvement of MDR1 in any efflux seen, an “effective efflux ratio” (EER) was calculated by comparing compound efflux ratios (ER) in the two cell types by the following equation: EER=ER(MDR1-MDCK)/ER(wild-type MDCK)
(§6) This ratio illustrates the effect of the over-expressed MDR1 normalised for the background movement of compound through the wild-type cells.
(§7) Lucifer Yellow (LY) was added to the apical buffer in all wells to assess viability of the cell layer. […] Recoveries<50% indicates compound solubility, stability or binding issues, thereby reducing the reliability of a result.
(§8) The inherent ability of a potential drug molecule to penetrate the blood brain barrier and avoid efflux by transporters expressed in the brain, can be roughly correlated with the Papp(A-B) and the efflux ratio (as defined above), respectively. A potential drug molecule with an apparent permeability<7 (10^−6 cm/sec) has low permeability (+), >7 (10^−6 cm/sec) but <10 (10^−6 cm/sec) has moderate permeability (++), >10 (10^−6 cm/sec) but <20 (10^−6 cm/sec) has good permeability (+++), and >20 (10^−6 cm/sec) is highly permeable (++++). High permeability in the WT and MDCK II cell permeability assay increases the probability of blood brain barrier penetration and access to the CNS. A potential drug molecule in the above assay system with an efflux ratio or effective efflux ratio of <1 has low probability of being an efflux substrate (++++), >1 but <2 has moderate probability of being an efflux substrate (+++), >2 but <3 has has an increased probability of being an efflux substrate (++), and >3 has a high probability of being an efflux substrate (+). If a potential drug molecule is an efflux substrate, the molecule will have a low probability of reaching exposures in the brain (site of action) that will result in efficacious levels of receptor occupancy.

[2] = tested on: wild-type (WT) MDCK cells; assay: Wild-type MDCK permeability and efflux assay (Papp, efflux ratio); assay type: in vitro ADME; conditions: for Papp AB WT: A->B; for ER WT (Efflux Ratio): Papp B>A/Papp A>B
Method: as §1, §2, §3, §4, §5, §6, §7, §8

[3] = as above; assay type: in vitro ADME; conditions: dog, pH 7.4, wild-type MDCK cells; for efflux ratio at 1 h, 10 μM: Papp B>A/Papp A>B, read-out: ER WT (Efflux Ratio)
Method: as §1, §2, §3, §4, §5, §6, §7, §8

[4] = target: T2, V1a receptors (Rattus norvegicus, UniProt P30560); assay: AVP induced phospho-ERK measurement in rat choroid plexus (RCP) cells; assay type: cell-based; conditions: RCP cells stimulated with AVP, pERK1/2 to total ERK1/2 ratio
T2 construct: Rat choroid plexus (RCP) cell lines express functional V1a receptors; endogenous in cells; host or cells: rat choroid plexus (RCP) cell line, RCP P9(18)
T2 sequence (P30560 whole entry): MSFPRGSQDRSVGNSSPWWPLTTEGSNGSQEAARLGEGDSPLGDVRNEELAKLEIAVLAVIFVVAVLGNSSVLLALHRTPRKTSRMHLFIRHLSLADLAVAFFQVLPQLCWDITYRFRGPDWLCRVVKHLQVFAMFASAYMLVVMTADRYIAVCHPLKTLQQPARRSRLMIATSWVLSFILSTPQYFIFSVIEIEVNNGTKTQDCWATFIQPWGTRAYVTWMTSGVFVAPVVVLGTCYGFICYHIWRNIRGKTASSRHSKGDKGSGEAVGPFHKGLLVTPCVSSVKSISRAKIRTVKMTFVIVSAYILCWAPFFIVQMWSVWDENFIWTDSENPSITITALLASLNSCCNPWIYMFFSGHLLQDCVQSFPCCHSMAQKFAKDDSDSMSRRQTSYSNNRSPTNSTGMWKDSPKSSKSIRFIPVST
Method: Rat choroid plexus (RCP) cell lines express functional V1a receptors measured by increased calcium concentrations in response to V1a receptor agonists (Battle et al., Biochem. Biophys. Res. Comm. 2000).
RCP P9(18) cells were seeded 30K/well, in 100 μl growth medium containing 10% FBS in polystyrene 96-well plates and incubated at 37° C., 5% CO2 and incubated overnight. The following day, the growth medium was replaced with 50 μl pre-warmed HBSS containing 20 mM HEPES and the cells were incubated at 37° C., 5% CO2 for 1.5 hrs. 1 mM AVP (Sigma V9879) was freshly prepared in distilled water in a glass vial and diluted to 3× concentrations in HBSS containing 20 mM HEPES and 0.1% BSA in glass vials and kept on ice. […] Final concentrations of AVP: 10, 100 or 1000 nM. […] Cells were lysed with 25 μl 4×CST lysis buffer containing protease and phosphatase inhibitors, PMSF and SDS and then stored at −80° C., for 48 h. The lysates were thawed, centrifuged at 2000 g for 30 min at 4° C. and 40 μl supernatants assayed for pERK1/2 (Thr202/Tyr204; Thr185/Tyr187) and total ERK1/2 using MSD kit K15107D. The MSD ECL data for the lysates were corrected for no cell blanks, then phospho-protein levels expressed as a ratio to the total ERK1/2 level. The ratios were expressed as fold-change from the vehicle-treated control at each timepoint.

[5] = MDCK-MDR1, pH 7.4, ER(MDR1-MDCK)/ER(wild-type MDCK), read-out: EER (Effective Efflux Ratio)
[6] = MDCK-MDR1, pH 7.4, Papp B>A/Papp A>B, MDR1-MDCK cells, read-out: ER MDR1 (Efflux Ratio)

Row | efflux ratio at 1 h, 10 μM [1, 5] | efflux ratio at 1 h, 10 μM [1, 6] | Papp A→B at 1 h, 10 μM ([1]; MDR1-MDCK cells) [×10⁻⁶ cm/s] | Papp A→B at 1 h, 10 μM [3] [×10⁻⁶ cm/s] | efflux ratio at 1 h, 10 μM [3] | IC50 ([4]; first study) [nM] | IC50 ([4]; second study) [nM] | SMILES | Papp AB MDR1 ([1]; MDR1-MDCK cells) | EER (Effective Efflux Ratio) [1] | ER MDR1 (Efflux Ratio) ([1]; MDR1-MDCK cells) | Papp AB WT [2] | ER WT (Efflux Ratio) [2]
1 | – | – | – | – | – | – | – | CC1COc2cc(F)ccc2N1C(=O)N1CC2(C1)CN(c1ccc(F)cn1)C2 (single isomer, unassigned) [12-1-B] | ++++ (>20 (10^−6 cm/sec) is highly permeable (++++)) | +++ (>1 but <2 has moderate probability of being an efflux substrate (+++)) | ++++ (efflux ratio or effective efflux ratio of <1 has low probability of being an efflux substrate (++++)) | ++++ (>20 (10^−6 cm/sec) is highly permeable (++++)) | ++++ (efflux ratio or effective efflux ratio of <1 has low probability of being an efflux substrate (++++))
2 | – | – | – | – | – | – | – | Cc1cncc(N2CC3(CN(C(=O)N4c5ccc(F)cc5OCC4C)C3)C2)n1 (single isomer, unassigned) [20-2-B] | ++++ (>20 (10^−6 cm/sec) is highly permeable (++++)) | +++ (>1 but <2 has moderate probability of being an efflux substrate (+++)) | +++ (>1 but <2 has moderate probability of being an efflux substrate (+++)) | ++++ (>20 (10^−6 cm/sec) is highly permeable (++++)) | ++++ (efflux ratio or effective efflux ratio of <1 has low probability of being an efflux substrate (++++))
3 | – | – | – | – | – | – | – | Cc1nc(N2CC3(CN(C(=O)N4c5ccc(Cl)cc5OCC4C)C3)C2)ncc1F (single isomer, unassigned) [20-7-B] | ++++ (>20 (10^−6 cm/sec) is highly permeable (++++)) | +++ (>1 but <2 has moderate probability of being an efflux substrate (+++)) | ++++ (efflux ratio or effective efflux ratio of <1 has low probability of being an efflux substrate (++++)) | ++++ (>20 (10^−6 cm/sec) is highly permeable (++++)) | ++++ (efflux ratio or effective efflux ratio of <1 has low probability of being an efflux substrate (++++))
4 | 1 to 2 | 1 to 2 | > 20 | > 20 | < 1 | – | – | O=C(N1CC2(C1)CN(c1cnccn1)C2)N1CCOc2cc(Cl)ccc21 [8-3] | – | – | – | – | –
5 | > 3 | > 3 | > 20 | > 20 | < 1 | – | – | O=C(N1CC2(C1)CN(c1ccc(F)cn1)C2)N1CCC(O)c2cc(Cl)ccc21 (centres unmarked) [13-1, (6-chloro-4-hydroxy-3,4-dihydroquinolin-1(2H)-yl)(6-(5-fluoropyridin-2-yl)-2,6-diazaspiro[3.3]heptan-2-yl)methanone] | – | – | – | – | –
6 | < 1 | < 1 | > 20 | > 20 | < 1 | – | – | CC1COc2cc(Cl)c(F)cc2N1C(=O)N1CC2(C1)CN(c1cccnn1)C2 (centres unmarked) [19-4] | – | – | – | – | –
7 | < 1 | 1 to 2 | > 20 | > 20 | 1 to 2 | – | – | O=C(N1CC2(C1)CN(c1cnccn1)C2)N1CCc2cc(Cl)ccc21 [8-14] | – | – | – | – | –
8 | 1 to 2 | 1 to 2 | > 20 | > 20 | < 1 | 16 | 20 | CC1COc2cc(Cl)ccc2N1C(=O)N1CC2(C1)CN(c1ncccn1)C2 (single isomer, unassigned) [1-83-B, (7-chloro-3-methyl-2,3-dihydro-4H-benzo[b][1,4]oxazin-4-yl)(6-(pyrimidin-2-yl)-2,6-diazaspiro[3.3]heptan-2-yl)methanone] | – | – | – | – | –
9 | < 1 | 1 to 2 | > 20 | > 20 | 1 to 2 | – | – | CC1COc2cc(Cl)c(F)cc2N1C(=O)N1CC2(C1)CN(c1ncccn1)C2 (single isomer, unassigned) [19-2-B] | – | – | – | – | –
10 | – | – | – | – | – | – | – | CC1COc2cc(Cl)ccc2N1C(=O)N1CC2(C1)CN(c1cc(C#N)ccn1)C2 (single isomer, unassigned) [20-6-B] | ++++ (>20 (10^−6 cm/sec) is highly permeable (++++)) | ++++ (efflux ratio or effective efflux ratio of <1 has low probability of being an efflux substrate (++++)) | ++++ (efflux ratio or effective efflux ratio of <1 has low probability of being an efflux substrate (++++)) | ++++ (>20 (10^−6 cm/sec) is highly permeable (++++)) | ++++ (efflux ratio or effective efflux ratio of <1 has low probability of being an efflux substrate (++++))
11 | 1 to 2 | < 1 | > 20 | > 20 | < 1 | – | – | O=C(N1CC2(C1)CN(c1ccccn1)C2)N1CCOc2cc(Cl)ccc21 [8-2] | – | – | – | – | –
12 | < 1 | < 1 | > 20 | > 20 | < 1 | – | – | COc1ccnc(N2CC3(CN(C(=O)N4c5ccc(Cl)cc5OCC4C)C3)C2)n1 (centres unmarked) [20-9] | – | – | – | – | –
